For 56 compounds, EC50 results are on record in ChEMBL document CHEMBL5725801, “Fused heterocyclic compounds as CaM kinase inhibitors” (2018).

A short description of the assay: CaMKII Cell-Based Activity: CaMKII activity in neonatal rat ventricular myocytes (NRVM) was measured by monitoring the phosphorylation level of phospholamban using high-content imaging. NRVMs were plated in a clear bottom 384-well plate in medium supplemented with 10% fetal bovine serum (FBS) and incubated at 37° C., 5% CO2 overnight. The medium was changed to a serum-free medium and compounds were dosed to the cells. The cells were incubated at 37° C., 5% CO2 for 4 hours and were then treated with 100 nM ATX-II (Alomone Labs) to activate CaMKII. 10 minutes after the addition of ATX-II, the cells were fixed with 4% formaldehyde followed by permeabilization with 0.1% triton X100. The fixed cells were stained with an anti-phospho-phospholamban primary antibody (Santa Cruz Biotechnology) and an Alexa488-labeled anti-rabbit IgG secondary antibody (Life Technologies Corporation) as well as Hoechst 33342 (Life Technologies Corporation). The cells were imaged using an ArrayScan VTI (Cellomics) and analyzed for cells containing a positive fluorescent signal at 485 nm, reported as % responder. The % responders were plotted against the compound concentration to determine the compounds EC50.
The EC50 is the concentration needed to bring the measured effect to its halfway point. Read a low EC50 as greater potency. `CCc1cc(C(=O)NC[C@H](C)N(CC)CC)cc(-c2cnn3ccc(-c4cccs4)nc23)n1` had an EC50 of 59.7 nM. For `CCN(CC)[C@@H](C)CNC(=O)c1cc(-c2cnn3ccc(-c4cccs4)nc23)nc(N2CC(O)C2)c1` the value was 17.7 nM; for `CCN(CC)[C@@H](C)CNC(=O)c1cc(-c2cnn3ccc(-c4cccs4)nc23)nc(N(C)C)c1`, 40.8 nM.

As for `CCN(CC)[C@@H](C)CNC(=O)c1cc(-c2cnn3ccc(-c4cccs4)nc23)nc(N2CC(OC)C2)c1`, the EC50 amounted to 13.7 nM. In turn, `CCN[C@@H](C)CNC(=O)c1cc(Cl)nc(-c2cnn3ccc(-c4ccccc4)nc23)c1` yielded an EC50 of 13.8 nM. `COc1cc(C(=O)N2CCCC[C@H]2CN)cc(-c2cnn3ccc(-c4ccccc4)nc23)n1` had an EC50 of 288 nM. As for `O=C(c1ccnc(-c2cnn3ccc(-c4ccccc4)nc23)c1)N1CCC2CCNCC21` (stereo unspecified), a half-maximal response (EC50) required 65.6 nM. For the compound `COc1cc(C(=O)N2CCCC[C@@H]2CN)cc(-c2cnn3ccc(-c4ccccc4)nc23)n1`, a half-maximal effect (EC50) was put at 316 nM.

The compound `CCN(CC)[C@@H](C)CNC(=O)c1cc(-c2cnn3ccc(-c4cccs4)nc23)nc(N2CC(S(=O)(=O)NC)C2)c1` came in with an EC50 of 50.5 nM. In turn, `Cc1cc(C(=O)N2CCC[C@@H]2CN)cc(-c2cnn3ccc(-c4ccccc4)nc23)n1` came in with an EC50 of 211 nM. `CCN(CC)[C@@H](C)CNC(=O)c1cc(Cl)nc(-c2cnn3ccc(-c4cccs4)nc23)c1` came in with an EC50 of 69.3 nM. As to `CN(C)c1cc(C(=O)N2CCCC[C@H]2CN)cc(-c2cnn3ccc(-c4ccccc4)nc23)n1`, a half-maximal effect (EC50) was put at 418 nM. In turn, `CCN(CC)[C@@H](C)CNC(=O)c1cc(-c2cnn3ccc(-c4cccs4)nc23)nc(N2CC(S(=O)(=O)NC3CC3)C2)c1` registered a 50% effective concentration (EC50) of 51 nM. For `CCN(CC)[C@@H](C)CNC(=O)c1cc(N)nc(-c2cnn3ccc(-c4ccccc4)nc23)c1`, a half-maximal effect (EC50) was put at 25 nM. Take `Cc1cnc(-c2cnn3ccc(-c4ccccc4)nc23)cc1C(=O)N1CCCC[C@@H]1[C@@H](C)N`: the EC50 is 66.4 nM. For `CN(C)c1cc(C(=O)N2CCCC[C@@H]2CN)cc(-c2cnn3ccc(-c4ccccc4)nc23)n1`, the EC50 is 53.2 nM. For `NC[C@H]1CCCCN1C(=O)c1cc(-c2cnn3ccc(-c4ccccc4)nc23)nc(C2CC2)c1` the value was 29.2 nM. In turn, `CCN[C@@H](C)CNC(=O)c1cc(-c2cnn3ccc(-c4ccccc4)nc23)nc(C2CC2)c1` came in with an EC50 of 15.3 nM.

The compound `Cc1cnc(-c2cnn3ccc(-c4ccccc4)nc23)cc1C(=O)N1CCCC[C@@H]1CN` yielded an EC50 of 33.3 nM. For `O=C(c1ccnc(-c2cnn3ccc(-c4cccs4)nc23)c1)N1CCC[C@@H]2CCNC[C@@H]21` the value was 80.8 nM; for `CCN[C@@H](C)CNC(=O)c1cc(CC)nc(-c2cnn3ccc(-c4ccccc4)nc23)c1`, 170 nM; for `NC[C@@H]1CCCCN1C(=O)c1cc(Cl)nc(-c2cnn3ccc(-c4ccccc4)nc23)c1`, 213 nM. In turn, `NC[C@@H]1CCCCN1C(=O)c1cc(Cl)nc(-c2cnn3ccc(-c4cccs4)nc23)c1` came in with an EC50 of 243 nM.

As to `Nc1cc(C(=O)N2C3CCNCC2CC3)cc(-c2cnn3ccc(-c4ccccc4)nc23)n1` (stereo unspecified), the EC50 came to 606 nM. Regarding `CCN(CC)[C@@H](C)CNC(=O)c1cc(-c2cnn3ccc(-c4cccs4)nc23)nc(C(C)C)c1`, the EC50 was determined as 80.4 nM. Turning to `CCN(CC)[C@@H](C)CNC(=O)c1cc(-c2cnn3ccc(-c4cccs4)nc23)nc(N2CCC2)c1`, a half-maximal response (EC50) required 40.2 nM.

Take `NC[C@H]1CCCCN1C(=O)c1cc(Cl)nc(-c2cnn3ccc(-c4cccs4)nc23)c1`: a half-maximal response (EC50) required 23.7 nM. For `NC[C@H]1CCCCN1C(=O)c1cc(-c2cnn3ccc(-c4ccccc4)nc23)ncc1N` the value was 23.3 nM; for `O=C(c1ccnc(-c2cnn3ccc(-c4ccccc4)nc23)c1)N1CCCC[C@@H]1[C@@H]1CCCN1`, 6.81 nM. With `CCN(CC)[C@@H](C)CNC(=O)c1cc(-c2cnn3ccc(-c4cccs4)nc23)nc(N2CC(F)C2)c1`, the EC50 amounted to 20.5 nM. For `NC[C@H]1CCCCN1C(=O)c1cc(-c2cnn3ccc(-c4ccccc4)nc23)nc(C(F)(F)F)c1` the value was 65.2 nM; for `CCN(CC)[C@@H](C)CNC(=O)c1cc(-c2cnn3ccc(-c4cccs4)nc23)nc(N2CC(C)(C)C2)c1`, 93.8 nM; for `Nc1cc(C(=O)N2C3CCNCC2CC3)cc(-c2cnn3ccc(-c4cccs4)nc23)n1` (stereo unspecified), 111 nM. For `CC(C)(C)c1cc(C(=O)N2CCCC[C@@H]2CN)cc(-c2cnn3ccc(-c4ccccc4)nc23)n1` the value was 46.6 nM. For `O=C(c1ccnc(-c2cnn3ccc(-c4ccccc4)nc23)c1)N1CCCC12CCCNC2` (stereo unspecified) the value was 8.2 nM. For the compound `CN(C)c1cc(C(=O)N2CC[C@H](N)C2)cc(-c2cnn3ccc(-c4ccccc4)nc23)n1`, a half-maximal response (EC50) required 841 nM. As for `CCN[C@@H](C)CNC(=O)c1cc(-c2cnn3ccc(-c4ccccc4)nc23)nc(C(C)C)c1`, the EC50 is 19.5 nM. As for `N[C@@H]1CCC[C@H]2CCCN(C(=O)c3ccnc(-c4cnn5ccc(-c6ccccc6)nc45)c3)[C@H]21`, the concentration for a half-maximal effect (EC50) was determined as 71.7 nM. For `COc1cc(C(=O)N2CC[C@H](N)C2)cc(-c2cnn3ccc(-c4cccs4)nc23)n1` the value was 145 nM; for `CCN[C@@H](C)CNC(=O)c1cc(N)nc(-c2cnn3ccc(-c4ccccc4)nc23)c1`, 113 nM; for `CCN(CC)[C@@H](C)CNC(=O)c1cc(-c2cnn3ccc(-c4cccs4)nc23)nc(N2CC(S(C)(=O)=O)C2)c1`, 31.3 nM. As to `Cc1cc(C(=O)N2CCCC[C@@H]2CN)cc(-c2cnn3ccc(-c4ccccc4)nc23)n1`, the EC50 worked out at 52.8 nM. As for `CCN(CC)[C@@H](C)CNC(=O)c1cc(-c2cnn3ccc(-c4cccs4)nc23)nc(N2CC(C#N)C2)c1`, the concentration for a half-maximal effect (EC50) is 9.07 nM.

In turn, `NC[C@H]1CCCCN1C(=O)c1cc(-c2cnn3ccc(-c4ccccc4)nc23)ncc1Cl` came in with a concentration giving a half-maximal response (EC50) of 35.2 nM. Compound `CCN(CC)[C@@H](C)CNC(=O)c1cc(N)nc(-c2cnn3ccc(-c4cccs4)nc23)c1` showed an EC50 of 10.5 nM. For `CCN[C@@H](C)CNC(=O)c1cc(C)nc(-c2cnn3ccc(-c4ccccc4)nc23)c1` the value was 284 nM. For the compound `CN(C)c1cc(C(=O)N2CCCC[C@@H]2CN)cc(-c2cnn3ccc(-c4cccs4)nc23)n1`, the 50% effective concentration (EC50) amounted to 49 nM. For `CCN(CC)[C@@H](C)CNC(=O)c1cc(-c2cnn3ccc(-c4cccs4)nc23)nc(C(F)(F)F)c1` the value was 102 nM. For `CCN(CC)[C@@H](C)CNC(=O)c1cc(-c2cnn3ccc(-c4cccs4)nc23)nc(N2CC(C(F)(F)F)C2)c1` the value was 54.4 nM. For `CNc1cnc(-c2cnn3ccc(-c4ccccc4)nc23)cc1C(=O)N1CCCC[C@@H]1CN` the value was 21.8 nM; for `CCN(CC)[C@@H](C)CNC(=O)c1cc(-c2cnn3ccc(-c4cccs4)nc23)nc(N2CC(F)(F)C2)c1`, 17.3 nM. Compound `COc1cc(C(=O)N2CC[C@H](N)C2)cc(-c2cnn3ccc(-c4ccccc4)nc23)n1` showed an EC50 of 471 nM. For `NC[C@H]1CCCCN1C(=O)c1cc(Cl)nc(-c2cnn3ccc(-c4ccccc4)nc23)c1`, the midpoint of the response, the EC50, lay at 33.7 nM. `CN(C)c1cc(C(=O)N2CC[C@H](N)C2)cc(-c2cnn3ccc(-c4cccs4)nc23)n1` returned a concentration giving a half-maximal response (EC50) of 212 nM. The compound `CCN(CC)[C@@H](C)CNC(=O)c1cc(-c2cnn3ccc(-c4cccs4)nc23)nc(N2CC(OC(F)F)C2)c1` came in with an EC50 of 19.9 nM. As to `CCOC1CN(c2cc(C(=O)NC[C@H](C)N(CC)CC)cc(-c3cnn4ccc(-c5cccs5)nc34)n2)C1`, the EC50 was 9.45 nM.
